For one assay, the system named is 3-DG. The assay is described as follows: Quantitative determination of 3-DG (HPLC) after reaction of amino acids or food-derived proteins with carbohydrates at 120° C. for 60 minutes. It is filed as biochemical. The note with it: for 3-DG: 120° C., 60 minutes. The protocol: Amino acids, carbohydrates and a phosphate buffer solution were charged in a 30 mL glass test tube in each amount shown in Table 1, followed by sealing and stirring. After reacting in an autoclave at 120° C. for 60 minutes, the reaction solution was cooled and then filtered through a 0.2 μm filter. The filtrate thus obtained was used as a sample. The amino acids and carbohydrates used are as follows.
To 2 mL of a sample, the same amount of a 60% perchloric acid solution was added to deproteinize the sample. The sample was neutralized with 4 mL of an aqueous saturated sodium hydrogen carbonate solution and 0.8 mL of a 0.1% methanol solution of 2,3-diaminonaphthalene was added, and then the mixture was reacted at 4° C. for 16 hours. Next, the reactant was extracted with 4.4 mL of ethyl acetate, concentrated to dryness using an evaporator, dissolved in 5 mL of methanol, and then filtered through a 0.45 μm filter. The filtrate was subjected to high-performance liquid chromatography and 3-DG was quantitatively determined under the following measurement conditions.
Injection amount: 20 μL Column: TSK-GEL, ODS-80Ts (4.6×150 mm, manufactured by TOSOH CORPORATION) Column temperature: 30° C. Mobile phase: 50 mM phosphoric acid:methanol:acetonitrile=7:1.5:1.5 Flow rate: 1 mL/min.
Food-derived proteins, carbohydrates and a phosphate buffer solution were charged in a 30 mL glass test tube in each amount shown in Table 6, followed by sealing and stirring, and then the mixture was reacted in an autoclave at 120° C. for 60 minutes. Next, the reactant was fractionated by centrifugation at 3,000 rpm for 3 hours using an ultrafiltration unit (VIVA SPIN 20, manufactured by Sartorius Corporation). The obtained low molecular weight fraction was used as a sample for determination of 3-DG, while the obtained high molecular weight fraction was used as a sample for the determination of fluorescent AGEs, RAGE agonist activity and RAGE antagonist activity. Food-derived proteins and carbohydrates used are as follows: […]

A further assay concerns fluorescent AGEs. The assay is described as follows: Quantitative determination of fluorescent AGEs (relative to perylene) after reaction at 120° C. for 60 minutes. It is filed as biochemical. As to conditions: for Fluorescent AGEs: 120° C., 60 minutes. The protocol: Amino acids, carbohydrates and a phosphate buffer solution were charged in a 30 mL glass test tube in each amount shown in Table 1, followed by sealing and stirring. […] The filtrate thus obtained was used as a sample. The amino acids and carbohydrates used are as follows. After weighing 2.5 mg of a standard substance perylene, the standard substance perylene was fully dissolved in 50 mL of deaerated ethanol added thereto to prepare a perylene solution. The perylene solution diluted to the concentration of 10 μM was exposed to excitation light with a wavelength of 386 nm and then the area was calculated by measuring a fluorescence intensity ranging from 410 to 600 nm. […] Food-derived proteins, carbohydrates and a phosphate buffer solution were charged in a 30 mL glass test tube in each amount shown in Table 6, followed by sealing and stirring, and then the mixture was reacted in an autoclave at 120° C. for 60 minutes. Next, the reactant was fractionated by centrifugation at 3,000 rpm for 3 hours using an ultrafiltration unit (VIVA SPIN 20, manufactured by Sartorius Corporation). […] Food-derived proteins and carbohydrates used are as follows: After 0.4 g of a high molecular weight fraction and 8 mL of 6N hydrochloric acid were charged in an ampule and the air in the ampule was replaced with nitrogen, hydrolysis was performed at 110° C. for 16 hours in a heat block. After reaction, 8 mL of 5N sodium hydroxide was added, and pH was adjusted using 1N hydrochloric acid and 1N sodium hydroxide to make pH within a range of 7.2 to 7.6. […] Using the thus obtained filtrate as a sample, fluorescent AGEs were quantitatively determined using the following methods. After weighing 2.5 mg of a standard substance perylene, the standard substance perylene was fully dissolved in 10 mL of deaerated ethanol added thereto to prepare a perylene solution. The perylene solution diluted to the concentration of 10 μM was exposed to excitation light with a wavelength of 386 nm and then the area was calculated by measuring a fluorescence intensity ranging from 410 to 600 nm.

In a further assay the target is T1, human RAGE (Homo sapiens, UniProt Q15109).
T1 construct: human RAGE plasmid (including full-length human RAGE cDNA); expressed in transfected cells; host or cells: C6 glioma cells carrying pNF-κB-Luc plasmid and human RAGE plasmid
T1 sequence (Q15109 23-404): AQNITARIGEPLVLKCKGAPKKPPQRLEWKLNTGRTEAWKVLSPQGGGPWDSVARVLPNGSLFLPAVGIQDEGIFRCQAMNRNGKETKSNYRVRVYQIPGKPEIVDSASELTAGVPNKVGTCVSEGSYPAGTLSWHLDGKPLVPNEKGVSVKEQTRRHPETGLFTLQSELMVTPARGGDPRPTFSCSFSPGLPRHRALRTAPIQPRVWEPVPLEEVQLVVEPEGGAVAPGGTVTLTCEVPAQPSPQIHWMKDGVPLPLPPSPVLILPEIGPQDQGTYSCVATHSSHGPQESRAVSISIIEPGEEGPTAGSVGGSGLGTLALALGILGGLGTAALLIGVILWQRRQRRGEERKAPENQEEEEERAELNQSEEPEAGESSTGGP
In words: RAGE antagonist activity of reaction samples (120° C., 60 minutes) mixed with AGE-BSA, NF-κB luciferase assay in C6 glioma cells. It is filed as cell-based, rat. As to conditions: Test Example 2. The protocol:
Food-derived proteins, carbohydrates and a phosphate buffer solution were charged in a 30 mL glass test tube in each amount shown in Table 6, followed by sealing and stirring, and then the mixture was reacted in an autoclave at 120° C. for 60 minutes. Next, the reactant was fractionated by centrifugation at 3,000 rpm for 3 hours using an ultrafiltration unit (VIVA SPIN 20, manufactured by Sartorius Corporation). The obtained low molecular weight fraction was used as a sample for determination of 3-DG, while the obtained high molecular weight fraction was used as a sample for the determination of fluorescent AGEs, RAGE agonist activity and RAGE antagonist activity. Food-derived proteins and carbohydrates used are as follows:
Using Luciferase Assay System (manufactured by Promega Corporation), evaluation of RAGE antagonist activity was performed. (Day 1) According to the methods disclosed in Diabetes, 2006, vol. 55, pp. 2510-2522, C6 glioma cells into which pNF-κB-Luc plasmid (manufactured by Stratagene Corporation) and human RAGE plasmid (including full-length human RAGE cDNA) have been introduced were seeded at 100 μL/well into a 96-well plate and cultured in a CO2 incubator until the cells were confluent. For the culture, 10% FBS/DMEM medium was used. (Day 2) The medium was removed, and after wells were washed with 300 μL of serum-free DMEM medium, 100 μL of 0.1% FBS/DMEM medium was slowly added. Then, the medium was incubated overnight in a CO2 incubator. (Day 3) The sample was diluted using the medium, and 50 μL of the diluted sample, AGE-BSA in which AGE was formed with glyceraldehydes (50 μg/mL) as a control, and the mixture of diluted sample and AGE-BSA were added to wells. After incubation in a CO2 incubator for 4 hours, the medium was removed and wells were washed 2 times with 300 μL of PBS(−). Then, 25 μL of 1× lysis buffer was added on ice. After the plate was shaken for 15 seconds, 20 μl of lysate was charged in a new white plate. Further 100 μL of a luciferase assay reagent was added, and a fluorescence intensity was measured by a luminometer. Using 5 μl of lysate, quantitative determination of protein was also performed.

Setting [1] is: Test Example 1, lysine + arginine 0.2 g each, carbohydrate 3.40 g each, 20 mL phosphate buffer.
Setting [2] is: Test Example 2, gliadin 0.1 g + carbohydrate 3.4 g.
Setting [3] is: Test Example 2, lactalbumin 0.05 g + carbohydrate 3.4 g.
Setting [4] is: Test Example 2, lactic casein 0.01 g + carbohydrate 3.4 g.
Setting [5] is: Test Example 2, ovalbumin 0.05 g + carbohydrate 3.4 g.
Setting [6] is: Test Example 2, soybean casein 0.01 g + carbohydrate 3.4 g.
The mark [7] stands for this setting: Test Example 1, lysine + arginine 0.2 g each, carbohydrate 3.40 g each.
The mark [8] stands for this setting: gliadin + carbohydrate, mixture of sample and AGE-BSA, protein 0.1 μg/mL, relative to control (AGE-BSA) = 1.
Setting [9] is: lactalbumin + carbohydrate, mixture of sample and AGE-BSA, protein 10 μg/mL, relative to control (AGE-BSA) = 1.
Where [10] appears, read: lactic casein + carbohydrate, mixture of sample and AGE-BSA, protein 1 μg/mL, relative to control (AGE-BSA) = 1.
Setting [11] is: ovalbumin + carbohydrate, mixture of sample and AGE-BSA, protein 10 μg/mL, relative to control (AGE-BSA) = 1.
The mark [12] stands for this setting: soybean casein + carbohydrate, mixture of sample and AGE-BSA, protein 0.1 μg/mL, relative to control (AGE-BSA) = 1.
[13] abbreviates: Test Example 1, amino acids, compared with the test section 1 containing only sucrose.
Where [14] appears, read: Test Example 2, ovalbumin, lactalbumin, gliadin, lactic casein and soybean casein, compared with sections containing sucrose.

The text below walks through data of patent US20130287890A1, “INHIBITOR OF THE PRODUCTION OF ADVANCED GLYCATION END PRODUCTS” (UENO FINE CHEMICALS INDUSTRY, LTD., priority 2012, published 2013).

Take `OC[C@H]1O[C@@](CO)(O[C@H]2O[C@H](CO)[C@@H](O)[C@H](O)[C@H]2O)[C@@H](O)[C@@H]1O` [Sucrose, reference compound]: the 3-DG is recorded as 151 nmol/1 g of amino acid with 3-DG (setting [1]); 2,645 nmol/1 g of protein with 3-DG (setting [2]); 4,758 nmol/1 g of protein with 3-DG (setting [3]); 22,464 nmol/1 g of protein in the assay on 3-DG (setting [4]); 4,532 nmol/1 g of protein with 3-DG (setting [5]); 24,285 nmol/1 g of protein in the assay on 3-DG (setting [6]). The “Fluorescent AGEs” value is recorded as 79 nmol/1 g of amino acid with fluorescent AGEs (setting [7]); 649 nmol/1 g of protein with fluorescent AGEs (setting [2]); 119 nmol/1 g of protein in the assay on fluorescent AGEs (setting [3]); 100 nmol/1 g of protein in the assay on fluorescent AGEs (setting [4]); 168 nmol/1 g of protein with fluorescent AGEs (setting [5]); 18 nmol/1 g of protein with fluorescent AGEs (setting [6]). Further, the RAGE antagonist activity at human RAGE (setting [8]) was determined as 1.00; on human RAGE (setting [9]), 0.58; on human RAGE (setting [10]), 1.50; on human RAGE (setting [11]), 1.80; at human RAGE (setting [12]), 1.01.
For `OC[C@@H](O)[C@@H](O[C@H]1O[C@H](CO)[C@@H](O)[C@H](O)[C@H]1O)[C@H](O)[C@@H](O)CO` [Maltitol], the “production of 3-DG” value in the assay on 3-DG (setting [13]) and in the assay on 3-DG (setting [14]) was “significantly decreased” throughout. In addition, the 3-DG was 36 nmol/1 g of amino acid in the assay with 3-DG (setting [1]); 240 nmol/1 g of protein in the assay on 3-DG (setting [2]); 656 nmol/1 g of protein with 3-DG (setting [3]); 2,734 nmol/1 g of protein in the assay on 3-DG (setting [4]); 523 nmol/1 g of protein in the assay on 3-DG (setting [5]); 1,446 nmol/1 g of protein with 3-DG (setting [6]). Also, in the assay on fluorescent AGEs (setting [13]), the “production of fluorescent AGEs” value is given as “decreased”. In addition, the “Fluorescent AGEs” value in the assay with fluorescent AGEs (setting [7]) is on record as 39 nmol/1 g of amino acid; in the assay with fluorescent AGEs (setting [2]), 632 nmol/1 g of protein; in the assay on fluorescent AGEs (setting [3]) it was 105 nmol/1 g of protein; with fluorescent AGEs (setting [4]) it was 84 nmol/1 g of protein; in the assay with fluorescent AGEs (setting [5]), 136 nmol/1 g of protein; in the assay with fluorescent AGEs (setting [6]), 20 nmol/1 g of protein. For the same molecule, the “production of AGEs” value in the assay with fluorescent AGEs (setting [14]) was “decreased”. Also, the RAGE antagonist activity on human RAGE (setting [8]) is reported as 0.90; at human RAGE (setting [9]), 0.54; at human RAGE (setting [10]), 1.42; on human RAGE (setting [11]), 1.74; at human RAGE (setting [12]), 0.99; at human RAGE (test sections 2 and 5 (ovalbumin, lactalbumin) compared with sections 1 and 4 containing sucrose) it was “decreased”.
